These are literature values, as cited in patent US20250288604A1, “SUGAR-CONJUGATED LIPID NANOPARTICLES FOR TARGETED DELIVERY OF SIRNA TO HEPATOCYTES” (University of Virginia Patent Foundation, priority 2022, published 2025).

For this data set the following is noted: single ionizable lipid.
As usually defined, the pKa is the negative logarithm of the acid dissociation constant. For the compound `CCCCCCCCC(CCCCCC)C(=O)OCCCCCCN(CCCCO)CCCCCCOC(=O)C(CCCCCC)CCCCCCCC` (stereo not drawn) [ALC-0315], the pKa is 6.09.

Take `CCCCC/C=C\C/C=C\CCCCCCCCC(CCCCCCCC/C=C\C/C=C\CCCCC)OC(=O)CCCN(C)C` [DLinMc3DMA, (6Z,9Z,28Z,31Z)-Heptatriaconta-6,9,28,31-tetraen-19-yl 4-(dimethylamino) butanoate]: the pKa is given as 6.44.

As for `CCCCCCCCCCCOC(=O)CCCCCN(CCO)CCCCCCCC(=O)OC(CCCCCCCC)CCCCCCCC` [SM-102], the pKa was 6.75.
